Experiment [1] concerns CD4^+ T cell adhesion to 120 kD fragment of FN. Kind of experiment: Inhibition of activated CD4+ T cell adhesion to 120 kD fragment of FN. The experiment is classed as cell-based, human. Conditions: for % inhibition of adhesion of activated CD4^+ T cell to 120 kD fragment of FN / % Adhesion of activated CD4^+ T cell to 120 kD fragment of FN: 0.2 mM peptides and surrogates, mAb anti-CD29 1/200, anti-VLA5 1/400 diluted; for % inhibition of adhesion of activated CD4^+ T cell to 120 kD fragment of FN: * P<0.05; for % Adhesion of activated CD4^+ T cell to 120 kD fragment of FN: PMA activated, none 43 ± 4; for T cell adhesion to FN, in words: 0.2 mM, 120 kD fragment of FN. The procedure:
(§1) To examine the adhesive properties of the T cells, 1 μg/50 μl/well of either fibronectin (FN) (Sigma), the 120 kD cell attachment fragment of FN (Telios Pharm. Inc. San Diego, CA), or laminin (LN) (Sigma), were added to 96-flat bottom microtiter-wells for 12 h. Unbound proteins were then washed away and remaining binding sites were blocked with 0.1% bovine serum albumin (BSA) added to the wells for 2 h and washed. CD4+T cells were purified from peripheral blood mononuclear leukocytes obtained from healthy human donors. The mononuclear cells were isolated using a Ficoll gradient, washed and incubated in RPMI supplemented with 10% fetal calf serum (FCS) and antibiotics in petri dishes at 37° C. humidified CO2 incubator. After 2 h, the non-adherent cells were isolated and applied on nylon-wool columns (1.5 h). CD4^+ T cells were then negatively selected by exposure of the cells to a cocktail of anti-CD8, CD19, and CD14 monoclonal antibodies (mAb) conjugated to magnetic-beads (Advanced Magnetics, MA). Unbound cells were recovered and their phenotype was examined. Purity of the CD4^+ T cells was always greater than 92% as determined by FACScan.
(§2) The purified CD4^+ T cells were radioactively labeled with ^51 [Cr](New England Nuclear) in RPMI +20% FCS for 2 h and washed. The cells were counted and seeded (0.2×10^5 cells) on the precoated microtiter wells in the presence or the absence of the various inhibitors. Coating was made either with FN, the 120 kD cell-attachment fragment of FN or with control adhesive protein laminin (LN). The inhibitors were various surrogates according to the invention, other test molecules or mAb. After 30 min incubation (in […] CO2 -- humidified incubator) the T cells were activated by 10 ng/ml phorbol myristate acetate (PMA) and the percent of T cells attached to the protein substrates was measured. Unbound cells were washed away after 20-30 min, the bound cells were lysed and their radioactivity was measured using radioactive counter. The amount of the radioactivity of the cell lysates represent the matrix-adherent cells and percent binding was calculated in comparison to the total radioactivity added to the wells. Activated T cell adhesion to control wells or to wells coated with BSA was always 2-5%; the level of adhesion of the non-activated T cells was always below 5%. Where indicated, 1/200 diluted mAb anti-CD29 (anti-β1 mAb Serotec, GB), or 1/400 diluted anti-VLA5 (the β1α5 FN-integrin receptor) mAb (Telios Pharm. Inc. San Diego), or 0.2 mM of RGD, GRGDSPK or GRGESP peptides (Sigma) were used. The tested non-peptidic surrogates, 0.2 mM in PBS, were used to pretreat the T cells for 15 min before seeding the cells *, P<0.05. The results shown in Tables 1A, 1B and 1C represent data obtained from several experiments that produced essentially similar results.
(§3) The four RGD surrogates, AC-4.

The test system of experiment [2] is CD4^+ T cell adhesion to LN. Kind of experiment: Inhibition of activated CD4+ T cell adhesion to laminin (LN). The experiment is classed as cell-based, human. Conditions: for % inhibition of adhesion of activated CD4^+ T cell to LN / % Adhesion of activated CD4^+ T cell to LN: 0.2 mM peptides and surrogates, mAb anti-CD29 1/200, anti-VLA5 1/400 diluted; for % inhibition of adhesion of activated CD4^+ T cell to LN: * P<0.05; for % Adhesion of activated CD4^+ T cell to LN: none 55 ± 5. The procedure: as §1, §2, §3

Experiment [3] concerns the target T1, platelet GPIIb-IIIa receptor (Homo sapiens, UniProt P05106+P08514).
T1 construct: Platelet concentrates were prepared from human whole blood; endogenous in cells; host or cells: human platelets in platelet rich plasma
Briefly: Inhibition of ADP-induced platelet aggregation (platelet rich plasma). The experiment is classed as cell-based. As to conditions: FIG. 4; fixed sub-saturating 0.5 mM / 10μg/ml; 4 experiments. The procedure: To investigate the inhibitory role of the RGD analogues on adhesion, the platelet GPIIb-IIIa receptor which mediates platelet aggregation upon activation was used as a model.
Platelet concentrates were prepared from human whole blood in 10% adenine-citrate-dextrose in Fenwall bags (Baxter Travenol, Israel) followed by standard AABB protocol. Platelet rich plasma was prepared by centrifugation (2500 rpm for 5 min). Samples of platelets were counted in a Minos AST Cell Counter (Levoiselle, France). Cell aggregation was induced by […] and monitored at […] in a 4-channel Aggregometer (Bio-Data, Hatboro, Pa.). To evaluate the effect of the various RGD peptides and the peptide analogues, the platelet rich plasma was pre-incubated with the various inhibitors for 10 min at 37° C. with 10μsolutions followed by the induction of aggregation.
To examine the specificity of the inhibitory effect of the RGD-analogues on platelet aggregation, the cells were treated with various peptidic (RGD and GRGDSP) and non-peptidic (SF-6,6, SF-6,5 and AC-15) RGD analogues used at a fixed sub-saturating concentration of 0.5 mM.
An in vitro assay as described in Example 17 was carried out with the compound NS-11 to examine its ability to interfere with platelet aggregation, and compared it to the SF-6,5 surrogate.
Platelet rich plasma (PRP) was prepared from acid/citrate/dextrose anti-coagulated fresh human blood by differential centrifugation. Platelet aggregation was induced by […] and monitored at 695 nm by a 4-channel Aggregometer (Bio-Data, PA). To evaluate the effect of the RGDS peptide and the NS-8, NS-11 and NS-15 analogs, the PRP was preincubated with the inhibitors for 10 minutes at 37° C., prior to the induction of aggregation. […] In fact, 50% inhibition of platelet aggregation was achieved using a 30-fold lower concentration of NS-11 than that of RGDS.

The test system of experiment [4] is CD4^+ T cell adhesion to FN. Kind of experiment: Inhibition of activated CD4+ T cell adhesion to FN. The experiment is classed as cell-based, human. Conditions: Table 1B, surrogates 0.2 mM; for % Inhibition of adhesion: CD4^+ T cell to FN; for % Adhesion of activated CD4^+ to FN: none 65. The procedure:
as §1
as §2, with “The tested non-peptidic surrogates, 0.2 mM in PBS, were used to pretreat the T cells for 15 min before seeding the cells *, P<0.05.” left out
In a second series of experiments, FN was used in the adhesion assay carried out with the RGD surrogates NS-8, NS-11 and NS-15 in comparison to RGDS peptide.
In a third series of experiments, FN was used in the adhesion assay with the surrogates SF-6,5 and NS-11 and compared to the peptide GRGDSP.

In experiment [5] the test system is B16-melanoma cells adhesion to FN. Briefly: Inhibition of B16-melanoma cell adhesion to FN. The experiment is classed as cell-based, murine. As to conditions: surrogates 0.2 mM; for % inhibition of adhesion of B16-melanoma cells to FN: * P<0.05; for % Adhesion of B16-melanoma cells to FN: none 75 ± 5. The procedure:
(§4) To examine the adhesive properties of tumor cells, 1 μg/50μ/well of FN or 0.3μg/well of VN were added to 96-flat bottom microtiter wells for 12 h. Unbound proteins were then washed away and remaining binding sites were blocked with 0.1% BSA added to the wells for 2 h and washed. Murine B16-melanoma F-1 cells were metabolically labeled with ^35 S-methionine (New England Nuclear) for 2 h, chased for 18 h and extensively washed. The cell suspension was resuspened in RPMI supplemented with 1% BSA containing 1 mM CaCl2 and MgCl2. Tumor cell adhesion to control wells or to wells coated with BSA was always 2-5%. The tested non-peptidic surrogates, 0.2 mM in PBS, were used to pretreat the tumor cells for 15 min before seeding the cells *, P<0.05.
(§5) In a first series of experiments, the potential inhibitory action of the RGD surrogate SF-6,5 on adhesion of B16 melanoma cells to FN or VN was compared to that of the RGE surrogate SF-6,6 and to that of RGD, GRGDSPK and GRGESP peptides.
In a further set of experiments, the inhibitory activity of the RGD surrogates SF-6,5 and NS-11 on the adhesion of B16 murine melanoma cells to FN was compared to that of the GRGDSP peptide.

Experiment [6] relates to B16-melanoma cells adhesion to VN. Kind of experiment: Inhibition of B16-melanoma cell adhesion to VN. As to conditions: surrogates 0.2 mM; for % inhibition of adhesion of B16-melanoma cells to VN: * P<0.05; for % Adhesion of B16-melanoma cells to VN: none 68 ± 5. The experiment is classed as cell-based, murine. The procedure:
as §4, §5

T1 sequence (P08514 32-887 limits assumed): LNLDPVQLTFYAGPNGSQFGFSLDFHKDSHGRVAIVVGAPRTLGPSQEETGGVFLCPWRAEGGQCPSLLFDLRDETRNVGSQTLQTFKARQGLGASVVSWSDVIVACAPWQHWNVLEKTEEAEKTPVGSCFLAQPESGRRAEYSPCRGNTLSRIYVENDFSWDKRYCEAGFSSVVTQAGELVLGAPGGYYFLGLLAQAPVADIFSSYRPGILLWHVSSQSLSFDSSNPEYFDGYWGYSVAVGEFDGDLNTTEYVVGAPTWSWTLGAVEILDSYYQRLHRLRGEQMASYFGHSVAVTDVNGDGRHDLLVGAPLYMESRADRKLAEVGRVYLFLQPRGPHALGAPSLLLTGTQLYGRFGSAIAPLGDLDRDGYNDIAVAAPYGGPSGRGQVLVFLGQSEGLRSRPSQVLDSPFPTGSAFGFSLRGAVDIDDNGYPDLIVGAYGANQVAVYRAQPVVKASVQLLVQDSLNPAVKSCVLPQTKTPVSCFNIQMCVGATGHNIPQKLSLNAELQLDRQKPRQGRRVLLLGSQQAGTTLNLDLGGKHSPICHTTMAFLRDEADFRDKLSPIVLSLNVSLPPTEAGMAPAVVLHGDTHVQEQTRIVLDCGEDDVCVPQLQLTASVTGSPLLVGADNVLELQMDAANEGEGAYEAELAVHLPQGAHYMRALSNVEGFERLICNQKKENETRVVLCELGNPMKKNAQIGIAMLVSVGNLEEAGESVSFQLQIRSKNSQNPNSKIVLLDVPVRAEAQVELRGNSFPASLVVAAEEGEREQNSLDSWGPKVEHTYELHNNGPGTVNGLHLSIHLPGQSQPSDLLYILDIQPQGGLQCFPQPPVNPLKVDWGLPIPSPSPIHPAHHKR
T1 sequence (P08514 891-1039 limits assumed): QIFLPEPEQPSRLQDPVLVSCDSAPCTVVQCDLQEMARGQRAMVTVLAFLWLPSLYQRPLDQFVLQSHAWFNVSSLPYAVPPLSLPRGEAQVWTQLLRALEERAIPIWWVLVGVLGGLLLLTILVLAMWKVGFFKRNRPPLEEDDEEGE
T1 sequence (P05106 27-788): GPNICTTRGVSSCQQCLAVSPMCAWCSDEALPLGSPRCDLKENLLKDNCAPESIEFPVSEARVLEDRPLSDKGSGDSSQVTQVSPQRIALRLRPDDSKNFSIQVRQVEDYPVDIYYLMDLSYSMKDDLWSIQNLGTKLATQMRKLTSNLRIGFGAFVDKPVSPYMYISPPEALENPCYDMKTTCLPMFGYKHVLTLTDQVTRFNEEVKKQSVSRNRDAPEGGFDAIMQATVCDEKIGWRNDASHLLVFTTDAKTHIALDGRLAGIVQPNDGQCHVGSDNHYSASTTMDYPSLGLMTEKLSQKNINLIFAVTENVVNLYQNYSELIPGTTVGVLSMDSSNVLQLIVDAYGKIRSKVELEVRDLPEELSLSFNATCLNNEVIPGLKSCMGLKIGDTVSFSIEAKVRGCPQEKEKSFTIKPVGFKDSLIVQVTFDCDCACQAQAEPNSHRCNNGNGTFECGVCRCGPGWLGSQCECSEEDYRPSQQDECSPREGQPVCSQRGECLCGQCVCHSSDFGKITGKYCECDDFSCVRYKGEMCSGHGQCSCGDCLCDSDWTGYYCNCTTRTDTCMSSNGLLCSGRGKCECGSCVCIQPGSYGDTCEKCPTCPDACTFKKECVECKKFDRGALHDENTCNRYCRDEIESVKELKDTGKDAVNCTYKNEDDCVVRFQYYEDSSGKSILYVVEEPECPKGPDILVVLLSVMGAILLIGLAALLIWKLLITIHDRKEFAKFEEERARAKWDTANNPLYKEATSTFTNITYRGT

For the compound `N=C(N)NCCCCC(=O)NCC(=O)NCCC(=O)O` [AC-4, 4,7-diaza-5,8-dioxo-12-quanidino-dodecanoic acid], in experiment [1], the “% inhibition of adhesion of activated CD4^+ T cell to 120 kD fragment of FN” value (from here on “% inhibition of adhesion … of FN”) is 47%; the “% Adhesion of activated CD4^+ T cell to 120 kD fragment of FN” value (shortened to “% Adhesion … of FN”) is reported as 16 ± 3%; the “T cell adhesion to FN, in words” value is recorded as “inhibited T cell adhesion to FN”. Also, in experiment [2], the “% inhibition of adhesion of activated CD4^+ T cell to LN” value (from here on “% inhibition of adhesion … to LN”) turned out to be 0% and the “% Adhesion of activated CD4^+ T cell to LN” value (from here on “% Adhesion … to LN”) came to 57 ± 4%.

Turning to `N=C(N)NCCCC(=O)NCCC(=O)NCCC(=O)O` [AC-14, 4,8-diaza-5,9-dioxo-12-quanidino-dodecanoic acid], in experiment [1], the “% inhibition of adhesion … of FN” value is listed as 42%; the “% Adhesion … of FN” value was 25 ± 4%; the “T cell adhesion to FN, in words” value is listed as “inhibited T cell adhesion to FN”. Further, in experiment [2], the “% inhibition of adhesion … to LN” value turned out to be 0% and the “% Adhesion … to LN” value is given as 55 ± 6%.

As for `N=C(N)NCCCCC(=O)NCCCCCC(=O)O` [AC-15, 7-aza-8-oxo-12-quanidino-dodecanoic acid], in experiment [1], the “% inhibition of adhesion … of FN” value was found to be 19%; the “% Adhesion … of FN” value was 35 ± 5%; the “T cell adhesion to FN, in words” value was “inhibited T cell adhesion to FN”. Besides, in experiment [2], the “% inhibition of adhesion … to LN” value is on record as 0% and the “% Adhesion … to LN” value amounted to 52 ± 4%. For the same compound, the “Inhibition of platelet aggregation at fixed concentration, in words” value in experiment [3] is “even higher than that of the GRGDSPK peptide”.

For `N=C(N)NCCCCC(=O)N1CCCCC1C(=O)NCCC(=O)O` (stereo not shown) [NS-8], in experiment [4], the “% Inhibition of adhesion” value worked out at 31% and the “% Adhesion of activated CD4^+ to FN” value worked out at 45%.

Take `N=C(N)NCCC(=O)Nc1cccc(C(=O)NCCC(=O)O)c1` [NS-15]: in experiment [4], the “% Inhibition of adhesion” value came to 59% and the “% Adhesion of activated CD4^+ to FN” value turned out to be 27%.

Consider `NCCCCCC(=O)NCCCCC(=O)O` [SFN-70, reference compound], for which, in experiment [1], the “% inhibition of adhesion … of FN” value amounted to 0%; the “% Adhesion … of FN” value amounted to 42 ± 5%; the “T cell adhesion to FN, in words” value was “did not inhibit T cell adhesion to both FN and LN”. In addition, in experiment [2] (0.2 mM), the “T cell adhesion to LN, in words” value is “did not inhibit T cell adhesion to both FN and LN”. In addition, in experiment [2], the “% inhibition of adhesion … to LN” value was 0% and the “% Adhesion … to LN” value is 49 ± 6%.

Arg-Gly-Asp [RGD]: in experiment [1], the “% inhibition of adhesion … of FN” value is reported as 12%; the “% Adhesion … of FN” value is 38 ± 3%; the “T cell adhesion to FN, in words” value is “specifically inhibited”. In experiment [2], the “% inhibition of adhesion … to LN” value was 0% and the “% Adhesion … to LN” value is on record as 57 ± 3%. In experiment [5], the “% inhibition of adhesion of B16-melanoma cells to FN” value is on record as 7% and the “% Adhesion of B16-melanoma cells to FN” value came to 70 ± 3%. For the same compound, in experiment [6], the “% inhibition of adhesion of B16-melanoma cells to VN” value stood at 0% and the “% Adhesion of B16-melanoma cells to VN” value was determined as 66 ± 6%. Also, the “Inhibition of platelet aggregation at fixed concentration, in words” value in experiment [3] is recorded as “not an effective inhibitor”.

GRGESP: in experiment [1], the “% inhibition of adhesion … of FN” value was 0% and the “% Adhesion … of FN” value was 46 ± 3%. In experiment [2], the “% inhibition of adhesion … to LN” value turned out to be 0% and the “% Adhesion … to LN” value was determined as 52 ± 3%. In addition, in experiment [5], the “% inhibition of adhesion of B16-melanoma cells to FN” value is listed as 0% and the “% Adhesion of B16-melanoma cells to FN” value is 73 ± 5%. For the same compound, in experiment [6], the “% inhibition of adhesion of B16-melanoma cells to VN” value came out at 0% and the “% Adhesion of B16-melanoma cells to VN” value came to 66 ± 8%.

For RGDS [reference compound], in experiment [4], the “% Inhibition of adhesion” value is on record as 67% and the “% Adhesion of activated CD4^+ to FN” value came out at 22%.

The values are drawn from patent US5352667A, “Non-peptidic surrogates of the Arg-Gly-Asp sequence and pharmaceutical compositions comprising them” (priority 1991, dated 1994).
